# Measurements as given in PubChem BioAssay (NCI).
#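 Protocol summary: plate cells (96-well), add compound at 5 concentrations, incubate 48 h, interpolate endpoints linearly. Definition used: TGI = concentration required for complete inhibition of growth.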
# Assays:
# Assay in all cases: DTP human tumour cell line panel, 48 h
# K-562 leukemia = test system: K-562 leukemia
# OVCAR-4 ovarian = test system: OVCAR-4 ovarian
# RXF 393 renal = test system: RXF 393 renal
# SNB-75 CNS = test system: SNB-75 CNS
# TK-10 renal = test system: TK-10 renal
# UO-31 renal = test system: UO-31 renal
# MALME-3M melanoma = test system: MALME-3M melanoma
# NCI/ADR-RES ovarian = test system: NCI/ADR-RES ovarian
# OVCAR-5 ovarian = test system: OVCAR-5 ovarian
# HS 578T breast = test system: HS 578T breast
# M14 melanoma = test system: M14 melanoma
# SK-MEL-5 melanoma = test system: SK-MEL-5 melanoma
# UACC-257 melanoma = test system: UACC-257 melanoma
# OVCAR-8 ovarian = test system: OVCAR-8 ovarian
# COLO 205 colon = test system: COLO 205 colon
# SF-295 CNS = test system: SF-295 CNS
# HOP-92 NSCLC = test system: HOP-92 NSCLC
# SK-MEL-28 melanoma = test system: SK-MEL-28 melanoma
# HL-60(TB) leukemia = test system: HL-60(TB) leukemia
# SR leukemia = test system: SR leukemia
Compound,TGI (K-562 leukemia),TGI (OVCAR-4 ovarian),TGI (RXF 393 renal),TGI (SNB-75 CNS),TGI (TK-10 renal),TGI (UO-31 renal),TGI (MALME-3M melanoma),TGI (NCI/ADR-RES ovarian),TGI (OVCAR-5 ovarian),TGI (HS 578T breast),TGI (M14 melanoma),TGI (SK-MEL-5 melanoma),TGI (UACC-257 melanoma),TGI (OVCAR-8 ovarian),TGI (COLO 205 colon),TGI (SF-295 CNS),TGI (HOP-92 NSCLC),TGI (SK-MEL-28 melanoma),TGI (HL-60(TB) leukemia),TGI (SR leukemia)
COc1ccc2c(c1)CCCN1Cc3cc(OC)c(OC)cc3CC21 (stereo unspecified),> 100 µM,> 100 µM,> 100 µM,> 100 µM,> 100 µM,> 100 µM,> 100 µM,> 100 µM,> 100 µM,> 100 µM,44.1 µM,> 100 µM,> 100 µM,> 100 µM,> 100 µM,> 100 µM,> 100 µM,> 100 µM,,
CCOC(=O)C(=Cc1cc(OC)ccc1OC)C(=O)OCC,27.4 µM,21.6 µM,6.2 µM,5.95 µM,,,25.5 µM,,,,24.2 µM,17.2 µM,,20.9 µM,17.2 µM,26.5 µM,17 µM,17.1 µM,6.12 µM,
Cc1cc(C)n(-c2nc3ccccc3c(=O)n2-c2ccccc2)n1,> 100 µM,> 100 µM,> 100 µM,> 100 µM,> 100 µM,14.3 µM,> 100 µM,> 100 µM,> 100 µM,,> 100 µM,> 100 µM,> 100 µM,> 100 µM,> 100 µM,> 100 µM,,> 100 µM,> 100 µM,> 100 µM
COc1ccc(C2CC(=O)CC(c3ccc(OC)cc3)C23C(=O)NC(=S)NC3=O)cc1 (stereo unspecified),> 100 µM,> 100 µM,> 100 µM,> 100 µM,> 100 µM,> 100 µM,,> 100 µM,> 100 µM,,> 100 µM,> 100 µM,> 100 µM,> 100 µM,> 100 µM,> 100 µM,> 100 µM,> 100 µM,> 100 µM,> 100 µM
N#Cc1c(C#N)c(-c2ccco2)n(-c2ccccc2)c1N,> 100 µM,> 100 µM,> 100 µM,84.4 µM,> 100 µM,> 100 µM,> 100 µM,> 100 µM,> 100 µM,,> 100 µM,> 100 µM,> 100 µM,73.1 µM,> 100 µM,> 100 µM,> 100 µM,,> 100 µM,> 100 µM
CC1(Br)C(=O)NC(=O)N(C2CC(N=[N+]=[N-])C(CO)O2)C1N=[N+]=[N-] (stereo unspecified),> 100 µM,> 100 µM,> 100 µM,> 100 µM,> 100 µM,> 100 µM,> 100 µM,,> 100 µM,,> 100 µM,> 100 µM,> 100 µM,> 100 µM,> 100 µM,> 100 µM,> 100 µM,> 100 µM,> 100 µM,
Cc1nc(-c2nc(C)c(C(=O)NN(C)C)s2)sc1C(=O)NN(C)C,> 100 µM,> 100 µM,,> 100 µM,> 100 µM,> 100 µM,> 100 µM,,> 100 µM,,> 100 µM,> 100 µM,> 100 µM,> 100 µM,53.9 µM,> 100 µM,> 100 µM,> 100 µM,> 100 µM,40.7 µM
CN1C(=O)[C@@H]2N(CSC2(C)C)C1=S,> 100 µM,> 100 µM,> 100 µM,> 100 µM,> 100 µM,> 100 µM,,> 100 µM,> 100 µM,,> 100 µM,> 100 µM,> 100 µM,> 100 µM,> 100 µM,> 100 µM,> 100 µM,> 100 µM,,> 100 µM
CCOC(=O)[C@H]1Nc2ccc(Cl)cc2[C@H]2OCC[C@@H]12,> 100 µM,> 100 µM,> 100 µM,> 100 µM,> 100 µM,,> 100 µM,,> 100 µM,,> 100 µM,> 100 µM,> 100 µM,> 100 µM,> 100 µM,> 100 µM,,> 100 µM,> 100 µM,
C/C1=C\[C@H](C)C[C@H](C)OC(=O)C[C@H](c2ccc(O)cc2)NC(=O)[C@H](Cc2ccc(O)c(Br)c2)N(C)C(=O)[C@H](C)NC(=O)[C@@H](C)C1,> 25 µM,> 25 µM,,> 25 µM,> 25 µM,> 25 µM,> 25 µM,> 25 µM,> 25 µM,> 25 µM,> 25 µM,> 25 µM,,> 25 µM,> 25 µM,> 25 µM,> 25 µM,> 25 µM,,> 25 µM
Cc1nc2ccccc2c(=O)n1NC(=S)Nc1cccc(Cl)c1,> 100 µM,> 100 µM,> 100 µM,> 100 µM,> 100 µM,> 100 µM,> 100 µM,,> 100 µM,,> 100 µM,> 100 µM,> 100 µM,> 100 µM,> 100 µM,> 100 µM,> 100 µM,> 100 µM,> 100 µM,> 100 µM
COc1ccc(N2C(=O)c3cccnc3S2(=O)=O)cc1,> 100 µM,> 100 µM,> 100 µM,> 100 µM,,> 100 µM,> 100 µM,> 100 µM,> 100 µM,,> 100 µM,,> 100 µM,> 100 µM,> 100 µM,> 100 µM,> 100 µM,> 100 µM,> 100 µM,> 100 µM
NCCCCN(CCCN)Cc1ccccc1,> 100 µM,> 100 µM,> 100 µM,> 100 µM,> 100 µM,> 100 µM,,> 100 µM,> 100 µM,> 100 µM,> 100 µM,> 100 µM,> 100 µM,> 100 µM,> 100 µM,> 100 µM,> 100 µM,> 100 µM,> 100 µM,
